Source: patent US8466273B2, “Hepatitis C virus inhibitors” (priority 2008, dated 2013)

How the values were obtained:
[1] = tested on: FLR3-1, R6FLR-N and JFH1 cells; assay: Cytotoxic activity of inhibitors by WST assay in FLR3-1, R6FLR-N and JFH1 cells; type: cell-based
Experimental: HCV-replicating cells were incubated with a BGT-1 inhibitor tiagabine or an AKR1C1 inhibitor flufenamic acid, and the inhibitory effect against HCV replication was evaluated by a luciferase assay. Tiagabine was dissolved in sterile distilled water at a final concentration of 1 mM, and flufenamic acid was dissolved in 1% EtOH at a final concentration of 1 μM-1 mM. The assay was performed after a reaction period of 24 hours in expectation of the rapid action of the inhibitors. The HCV-replicating cells used were FLR3-1, R6FLR-N (both genotype 1b) and JFH1 (genotype 2a: Kato et al., Gastroenterology, 2003, 125 (6):1808-17). The cells incubated in the medium alone were used as “controls”. The experiment was performed in triplicate, and the average±S.D. was graphically shown. Statistical analysis was performed by Student's t-test.
(§1) In the same manner as described above, the cytotoxic activity of tiagabine (1 mM), NNC05-2090 (0.1-10 μM), and flufenamic acid (1 μM-1 mM) against HCV-replicating cells was evaluated by the WST assay. The experiment was performed in triplicate, and the average±S.D. was graphically shown. Statistical analysis was performed by Student's t-test.

[2] = tested on: HCV replication in R6FLR-N cells; assay: HCV replication activity by luciferase assay in R6FLR-N replicon cells; type: cell-based, Hepatitis C virus (genotype 1b); conditions: for replication of HCV (luminescence relative to control siRNA group defined as 100%): 4.2 nM siRNA, 72 hours post-treatment; for minimal effective concentration showing a significant inhibitory effect against HCV replication vs. the control siRNAs: data not shown
Text: The inhibitory effect against HCV replication can be determined by using HCV replicon cells (Lohmann et al., Science, 1999, 285 (5424):110-113). HCV replicon cells bear a luciferase gene as an indicator gene fused to a nonstructural protein (NS) region necessary for the replication of HCV. HCV replication activity can be measured by luciferase assays. Viral inhibitory activity can also be evaluated by using HCV infection systems (Wakita et al., Nat. Med. 2005, 11 (7), 791-796).
In this study, HCV-replicating cells (FLR3-1 and R6FLR-N) established from Huh-7 replicon cells (Lohmann et al., Science, 1999, 285 (5424):110-3) containing a luciferase-neo fusion gene and three HCV nonstructural protein regions (NS3-NS5b) after G418 selection were used. The use of these cells allows HCV replication activity to be measured by a luciferase assay. The HCV-replicating cells (FLR3-1 or R6FLR-N) were reverted by treatment with interferon α (100 IU/ml) for 72 hours or more to lower the HCV replication level and used as control cells (see Guo J T, Bichko V V, Seeger C., J. Virol. 2001, 75 (18):8516-23). The cells were incubated in Dulbecco's modified Eagle's medium (DMEM) GlutaMax I containing penicillin (100 U/ml), streptomycin (100 μg/ml), G418 (500 μg/ml), and 10% FCS (SIGMA).
The reverse transfection of the siRNAs was performed as follows. In each well of a 96-well plate (Falcon) containing Opti-MEM I medium was added each siRNA at a final concentration of 4.2, 12.6, and 25.2 nM and the plate was gently shaken. Lipofectamine™ RNAiMAX was mixed before use and added to the well (0.1 μl/well), and the plate was gently shaken and allowed to stand for 10-20 minutes at room temperature. R6FLR-N cells were plated at a density of 5×10^3 cells/well and incubated at 37° C. in 5% CO2 for 5 hours. The culture medium was replaced with 10% DMEM-Glutamax, and the cells were further incubated at 37° C. in 5% CO2. A plate containing the medium and Lipofectamine alone without siRNA (“Lipo”) and a plate containing the medium alone (“No”) were used as controls.
After incubation for 24, 48, and 72 hours, the HCV replication activity was measured by a luciferase assay. The replication activity is expressed relative to the luminescence intensity in the groups treated with the control siRNAs (“Ctrl”) defined as 100%. The experiment was performed in triplicate, and the average±S.D. was graphically shown. Statistical analysis was performed by Student's t-test.
FLR3-1 cells and R6FLR-N cells were incubated with a rabbit anti-BGT-1 polyclonal antibody (abcam) or a mouse anti-AKR1C1 polyclonal antibody (Abnova) for 72 hours. After incubation, the relative luminescence unit (RLU) was measured by a luciferase assay to evaluate the inhibitory activity against HCV replication. Normal rabbit serum was used as a control of the anti-BGT-1 antibody, and normal mouse serum was used as a control of the anti-AKR1C1 antibody. Each antibody was diluted at 1:100-1:10000 in 3% BSA/PBS. The experiment was performed in triplicate, and the average±S.D. was graphically shown. Statistical analysis was performed by Student's t-test.
R6FLR-N cells were also incubated with another BGT-1 inhibitor NNC05-2090 for 24-72 hours, and then analyzed by a luciferase assay in the same manner. NNC05-2090 was dissolved in DMSO at a final concentration of 0.1-10 μM (FIG. 7).

R6FLR-N cells = assay: Cytotoxic activity against HCV-replicating cells (Cell Counting Kit-8 / WST), R6FLR-N; type: cell-based
Experimental: In the same manner as described above, the siRNA were reversely transfected into R6FLR-N cells in a 96-well plate (Falcon). After incubation for 24, 48, and 72 hours, the number of viable cells was counted by a chromogenic reaction at 37° C. for 1 hour using Cell Counting Kit-8 (DOJINDO) following the manufacturer's protocol. The results are expressed relative to the cell survival rate in the groups treated with the control siRNAs defined as 100%. The experiment was performed in triplicate, and the average±S.D. was graphically shown. Statistical analysis was performed by Student's t-test.
FLR3-1 cells and R6FLR-N cells were incubated with the rabbit anti-BGT-1 polyclonal antibody or mouse anti-AKR1C1 polyclonal antibody described above for 72 hours. After incubation, the OD450/650 was measured by a chromogenic reaction at 37° C. for 1 hour using Cell Counting Kit-8 (DOJINDO) following the manufacturer's protocol. Normal rabbit serum was used as a control of the anti-BGT-1 antibody, and normal mouse serum was used as a control of the anti-AKR1C1 antibody. Each antibody was diluted at 1:100-1:10000 in 3% BSA/PBS. The experiment was performed in triplicate, and the average±S.D. was graphically shown. Statistical analysis was performed by Student's t-test.
as §1

AKR1C1 gene = assay: Inhibition of AKR1C1 gene expression by siRNA, RT-PCR; type: cell-based, Homo sapiens; conditions: data not shown
Experimental: (§2) The expression of BGT-1 and AKR1C1 and the inhibition of the expression by their siRNAs were analyzed by Western blotting and PCR.
(§3) The inhibition of the expression of the BGT-1 gene and the AKR1C1 gene by their siRNAs was also verified by RT-PCR using the following primers (data not shown): […]

BGT-1 gene = assay: Inhibition of BGT-1 gene expression by siRNA, RT-PCR; type: cell-based, Homo sapiens; conditions: data not shown
Experimental: as §2, §3

O=C(O)c1ccccc1Nc1cccc(C(F)(F)F)c1 [flufenamic acid]
OD value as % of the value of the 0 μM group (WST assay) ([1]; 100 μM, all types of HCV-replicating cells): ≤ 80%

siRNA of AKR1C1: siRNA of the AKR1C1 gene, 5′-AAGUAAAGCUUUAGAGGCCACCAAA-3′, nucleotides 93-117 (chemistry not given here)
replication of HCV (luminescence relative to control siRNA group defined as 100%) ([2]; R6FLR-N cells): 40±1%
minimal effective concentration showing a significant inhibitory effect against HCV replication vs. the control siRNAs [2]: 0.5 nM
cell survival rate (relative to control siRNA group defined as 100%) (R6FLR-N cells; 4.2 nM siRNA, 72 hours post-treatment): 53±18%
inhibition of the expression of the AKR1C1 gene by RT-PCR (AKR1C1 gene): verified

siRNA of BGT-1: siRNA of the BGT-1 gene, 5′-CAACAAGAUGGAGUUUGUGCUGUCA-3′, nucleotides 120-144 (chemistry not given here)
replication of HCV (luminescence relative to control siRNA group defined as 100%) ([2]; R6FLR-N cells): ≤ 10±4%
minimal effective concentration showing a significant inhibitory effect against HCV replication vs. the control siRNAs [2]: 0.5 nM
cytotoxic activity against HCV-replicating cells (R6FLR-N cells; any siRNA concentration tested (4.2, 12.6, 25.2 nM)): any significant cytotoxic activity was not detected
inhibition of the expression of the BGT-1 gene by RT-PCR (BGT-1 gene): verified

COc1ccccc1C1(O)CCN(CCCn2c3ccccc3c3ccccc32)CC1 [NNC05-2090, 1-(3-(9H-carbazol-9-yl)-1-propyl)-4-(2-methoxyphenyl)-4-piperidinol, reference compound]
RLU vs. the vehicle group (DMSO) ([2]; 10 μM, 24 hours, R6FLR-N cells): 30%
OD value as % of the vehicle group (WST assay) (R6FLR-N cells; 3 μM, 48 hours post-treatment): about 26%
OD value as % of the vehicle group (WST assay) (R6FLR-N cells; 10 μM, 24 hours post-treatment): about 23%

Cc1ccsc1C(=CCCN1CCC[C@@H](C(=O)O)C1)c1sccc1C [tiagabine]
cytotoxic activity against HCV-replicating cells (WST assay) ([1]; 1 mM, 24 hours, FLR3-1, R6FLR-N, JFH1 cells): significantly injured HCV-replicating cells in only FLR3-1 cells
